Test results published in US12145944B2, “Imidazopyrimidines as EED inhibitors and the use thereof” (THE REGENTS OF THE UNIVERSITY OF MICHIGAN, priority 2019, dated 2024).
Like-named read-outs stand apart in the source and are kept apart here.

Experiments:
Pfeiffer cell line = experiment: Anti-proliferative activity, Pfeiffer cell line, 7 day treatment; assay type: cell-based; settings: Homo sapiens, 168 h
Experimental: (§1) “N/A” stands for “not assessed”.
(§2) To assess the effect of PRC2 inhibition on cell growth, cells were seeded in 96-well cell culture plates at a density of 2 000-3 000 cells/well in 200 µL of culture medium, and treated with serially diluted compounds for 7 days at 37° C. in an atmosphere of 5% CO2. Cell growth was evaluated by a […] WST-8 assay (Dojindo Molecular Technologies) using a Tecan Infinite M1000 multimode microplate reader (Tecan, Morrisville, NC). The WST-8 reagent was added to the plate, incubated for 1-4 h, and read at 450 nm. The readings were normalized to the DMSO-treated cells, and the IC50 was calculated by nonlinear regression analysis using GraphPad Prism 6 software

[1] = test system: KARPAS422 human B cell lymphoma cell; experiment: Cell proliferation, KARPAS422, 7 day treatment (WST-8); assay type: cell-based; settings: Homo sapiens, KARPAS-422, 168 h
Experimental: as §1
Analysis of Cell Proliferation:
as §2

[2] = anti-proliferative IC50, Pfeiffer cell line, 7 day treatment, read-out: Pfeiffer Cell line
[3] = anti-proliferative IC50, Karpas 422 cell line, 7 day treatment, read-out: Karpas Cell line
[4] = anti-proliferative IC50 class, Pfeiffer cell line, 7 day treatment, read-out: Pfeiffer Cell line
[5] = anti-proliferative IC50 class, Karpas 422 cell line, 7 day treatment, read-out: Karpas Cell line

IC50 [1, 3] | IC50 (Pfeiffer cell line; [4]) | IC50 [1, 5] | Structure (SMILES) | other results
– | < 10 nM | < 10 nM | O=C1c2ncn3c(NCc4c(F)ccc5c4CCO5)ncc(c23)-c2ccc(C(F)(F)F)nc2CN1CC(F)F [E 8, 4-(2,2-difluoroethyl)-12-(((5-fluoro-2,3-dihydrobenzofuran-4-yl)methyl)amino)-7-(trifluoromethyl)-4,5-dihydro-3H-2,4,6,11,12a-pentaazabenzo[4,5]cycloocta[1,2,3-cd]inden-3-one] | –
– | < 10 nM | < 10 nM | Cc1cc2c(cn1)-c1cnc(NCc3c(F)ccc4c3CCO4)n3cnc(c13)C(=O)N(CC(F)F)C2 [E 9, 4-(2,2-difluoroethyl)-12-(((5-fluoro-2,3-dihydrobenzofuran-4-yl)methyl)amino)-7-methyl-4,5-dihydro-3H-2,4,8,11,12a-pentaazabenzo[4,5]cycloocta[1,2,3-cd]inden-3-one] | –
– | 10 to 100 nM | 10 to 100 nM | Cc1cnc2n1Cc1cc(C(F)(F)F)ncc1-c1cnc(NCc3c(F)ccc4c3CCO4)n3cnc-2c13 [E 10, N-((5-fluoro-2,3-dihydrobenzofuran-4-yl)methyl)-5-methyl-8-(trifluoromethyl)-6H-2,3,5a,9,12,13a-hexaazabenzo[4,5]cyclopenta[7,8]cycloocta[1,2,3-cd]inden-13-amine] | –
– | < 10 nM | < 10 nM | CC(C)N1Cc2cc(C(F)F)ncc2-c2cnc(NCc3c(F)ccc4c3CCO4)n3cnc(c23)C1=O [E 11, 7-(difluoromethyl)-12-(((5-fluoro-2,3-dihydrobenzofuran-4-yl)methyl)amino)-4-isopropyl-4,5-dihydro-3H-2,4,8,11,12a-pentaazabenzo[4,5]cycloocta[1,2,3-cd]inden-3-one] | –
– | < 10 nM | < 10 nM | CCc1ccc2c(n1)CN(CC(F)(F)F)C(=O)c1ncn3c(NCc4c(F)ccc5c4CCO5)ncc-2c13 [E 12, 7-ethyl-12-(((5-fluoro-2,3-dihydrobenzofuran-4-yl)methyl)amino)-4-(2,2,2-trifluoroethyl)-4,5-dihydro-3H-2,4,6,11,12a-pentaazabenzo[4,5]cycloocta[1,2,3-cd]inden-3-one] | –
– | < 10 nM | < 10 nM | CCc1ccc2c(n1)CN(CC(F)F)C(=O)c1ncn3c(NCc4c(F)ccc5c4CCO5)ncc-2c13 [E 13, 4-(2,2-difluoroethyl)-7-ethyl-12-(((5-fluoro-2,3-dihydrobenzofuran-4-yl)methyl)amino)-4,5-dihydro-3H-2,4,6,11,12a-pentaazabenzo[4,5]cycloocta[1,2,3-cd]inden-3-one] | –
– | < 10 nM | < 10 nM | O=C1c2ncn3c(NCc4c(F)ccc5c4CCO5)ncc(c23)-c2ccc(C3CC3)nc2CN1CC(F)(F)F [E 14, 7-cyclopropyl-12-(((5-fluoro-2,3-dihydrobenzofuran-4-yl)methyl)amino)-4-(2,2,2-trifluoroethyl)-4,5-dihydro-3H-2,4,6,11,12a-pentaazabenzo[4,5]cycloocta[1,2,3-cd]inden-3-one] | –
– | < 10 nM | < 10 nM | CC(C)c1ccc2c(n1)CN(CC(F)(F)F)C(=O)c1ncn3c(NCc4c(F)ccc5c4CCO5)ncc-2c13 [E 15, 12-(((5-fluoro-2,3-dihydrobenzofuran-4-yl)methyl)amino)-7-isopropyl-4-(2,2,2-trifluoroethyl)-4,5-dihydro-3H-2,4,6,11,12a-pentaazabenzo[4,5]cycloocta[1,2,3-cd]inden-3-one] | –
– | < 10 nM | < 10 nM | CCc1ccc2c(n1)CN(CC(C)(F)F)C(=O)c1ncn3c(NCc4c(F)ccc5c4CCO5)ncc-2c13 [E 16, 4-(2,2-difluoropropyl)-7-ethyl-12-(((5-fluoro-2,3-dihydrobenzofuran-4-yl)methyl)amino)-4,5-dihydro-3H-2,4,6,11,12a-pentaazabenzo[4,5]cycloocta[1,2,3-cd]inden-3-one] | –
– | 10 to 100 nM | 10 to 100 nM | Cc1cnc2n1Cc1ncccc1-c1cnc(NCc3c(F)ccc4c3CCO4)n3cnc-2c13 [E 17, N-((5-fluoro-2,3-dihydrobenzofuran-4-yl)methyl)-5-methyl-6H-2,3,5a,7,12,13a-hexaazabenzo[4,5]cyclopenta[7,8]cycloocta[1,2,3-cd]inden-13-amine] | –
> 100 nM | – | – | CNC(=O)c1ncn2c(NCc3c(F)ccc(OC)c3Cl)ncc(-c3ccccc3)c12 [compound 140, 5-((2-chloro-6-fluoro-3-methoxybenzyl)amino)-N-methyl-8-phenylimidazo[1,5-c]pyrimidine-1-carboxamide] | –
> 100 nM | – | – | CNC(=O)c1ncn2c(NCc3cccc4c3OCO4)ncc(-c3ccccc3)c12 [compound 141, 5-((benzo[d][1,3]dioxol-4-ylmethyl)amino)-N-methyl-8-phenylimidazo[1,5-c]pyrimidine-1-carboxamide] | –
> 100 nM | – | – | CNC(=O)c1ncn2c(NCc3c(F)ccc4c3CCO4)ncc(-c3ccccc3)c12 [compound 142, 5-(((5-fluoro-2,3-dihydrobenzofuran-4-yl)methyl)amino)-N-methyl-8-phenylimidazo[1,5-c]pyrimidine-1-carboxamide] | –

More lines, now with the values behind:

Structure (SMILES) | IC50 [1, 3] | IC50 (Pfeiffer cell line; [4]) | IC50 [1, 5] | other results
Fc1ccc2c(c1CNc1ncc3c4c(ncn14)COCc1ncccc1-3)CCO2 [Cpd. No. 2, N-((5-fluoro-2,3-dihydrobenzofuran-4-yl)methyl)-3H,5H-4-oxa-2,6,11,12a-tetraazabenzo[4,5]cycloocta[1,2,3-cd]inden-12-amine] | > 100 nM | – | – | IC50 (Pfeiffer cell line; [2]): > 100 nM
O=C1Nc2ccccc2-c2cnc(NCc3c(F)ccc4c3CCO4)n3cnc1c23 [Cpd. No. 3, 11-(((5-fluoro-2,3-dihydrobenzofuran-4-yl)methyl)amino)-2,4,10,11a-tetraazadibenzo[cd,f]azulen-3(4H)-one] | – | – | – | IC50 (Pfeiffer cell line; [2]): 84 nM
O=C1OCc2ncccc2-c2cnc(NCc3c(F)ccc4c3CCO4)n3cnc1c23 [Cpd. No. 12, 12-(((5-fluoro-2,3-dihydrobenzofuran-4-yl)methyl)amino)-3H,5H-4-oxa-2,6,11,12a-tetraazabenzo[4,5]cycloocta[1,2,3-cd]inden-3-one] | 3.84 nM | – | – | IC50 (Pfeiffer cell line; [2]): 0.65 nM
O=C1NCc2ncccc2-c2cnc(NCc3c(F)ccc4c3CCO4)n3cnc1c23 [Cpd. No. 16, 12-(((5-fluoro-2,3-dihydrobenzofuran-4-yl)methyl)amino)-4,5-dihydro-3H-2,4,6,11,12a-pentaazabenzo[4,5]cycloocta[1,2,3-cd]inden-3-one] | 14.7 nM | – | – | IC50 (Pfeiffer cell line; [2]): 3.39 nM
O=C1c2ncn3c(NCc4c(F)ccc5c4CCO5)ncc(c23)-c2cnc(C(F)(F)F)cc2CN1C1CC1 [Cpd. No. 36, 4-cyclopropyl-12-(((5-fluoro-2,3-dihydrobenzofuran-4-yl)methyl)amino)-7-(trifluoromethyl)-4,5-dihydro-3H-2,4,8,11,12a-pentaazabenzo[4,5]cycloocta[1,2,3-cd]inden-3-one] | 5.66 nM | – | – | IC50 (Pfeiffer cell line; [2]): 1.04 nM
Cc1ccc2c(n1)CS(=O)(=O)c1ncn3c(NCc4c(F)ccc5c4CCO5)ncc-2c13 [Cpd. No. 95, 11-(((5-fluoro-2,3-dihydrobenzofuran-4-yl)methyl)amino)-6-methyl-4H-3-thia-2,5,10,11a-tetraazadibenzo[cd,f]azulene 3,3-dioxide] | 0.89 nM | – | – | IC50 (Pfeiffer cell line; [2]): 0.023 nM
CS(=O)(=O)c1ncn2c(NCc3c(F)ccc4c3CCO4)ncc(-c3ccccc3)c12 [Cpd. No. 99, N-((5-fluoro-2,3-dihydrobenzofuran-4-yl)methyl)-1-(methylsulfonyl)-8-phenylimidazo[1,5-c]pyrimidin-5-amine] | – | – | – | IC50 (Pfeiffer cell line; Pfeiffer, read-out: Pfeiffer Cell line (nM)): 0.19 nM; IC50 ([1]; read-out: Karpas Cell line (nM)): 0.88 nM
Cc1ccc2c(n1)CN(C(C)C)C(=O)c1ncn3c(NCc4c(F)ccc5c4CCO5)ncc-2c13 [E 1, 12-(((5-fluoro-2,3-dihydrobenzofuran-4-yl)methyl)amino)-4-isopropyl-7-methyl-4,5-dihydro-3H-2,4,6,11,12a-pentaazabenzo[4,5]cycloocta[1,2,3-cd]inden-3-one] | – | < 10 nM | < 10 nM | –
Cc1cc2c(cn1)-c1cnc(NCc3c(F)ccc4c3CCO4)n3cnc(c13)C(=O)N(C(C)C)C2 [E 2, 12-(((5-fluoro-2,3-dihydrobenzofuran-4-yl)methyl)amino)-4-isopropyl-7-methyl-4,5-dihydro-3H-2,4,8,11,12a-pentaazabenzo[4,5]cycloocta[1,2,3-cd]inden-3-one] | – | < 10 nM | < 10 nM | –
CC(C)N1Cc2cc(C#N)ccc2-c2cnc(NCc3c(F)ccc4c3CCO4)n3cnc(c23)C1=O [E 4, 12-(((5-fluoro-2,3-dihydrobenzofuran-4-yl)methyl)amino)-4-isopropyl-3-oxo-4,5-dihydro-3H-2,4,11,12a-tetraazabenzo[4,5]cycloocta[1,2,3-cd]indene-7-carbonitrile] | – | < 10 nM | < 10 nM | –
O=C1c2ncn3c(NCc4c(F)ccc5c4CCO5)ncc(c23)-c2cnc(C(F)(F)F)cc2CN1C1CCC1 [E 5, 4-cyclobutyl-12-(((5-fluoro-2,3-dihydrobenzofuran-4-yl)methyl)amino)-7-(trifluoromethyl)-4,5-dihydro-3H-2,4,8,11,12a-pentaazabenzo[4,5]cycloocta[1,2,3-cd]inden-3-one] | – | < 10 nM | < 10 nM | –
Cc1ccc2c(n1)CN(CC(F)F)C(=O)c1ncn3c(NCc4c(F)ccc5c4CCO5)ncc-2c13 [E 6, 4-(2,2-difluoroethyl)-12-(((5-fluoro-2,3-dihydrobenzofuran-4-yl)methyl)amino)-7-methyl-4,5-dihydro-3H-2,4,6,11,12a-pentaazabenzo[4,5]cycloocta[1,2,3-cd]inden-3-one] | – | < 10 nM | < 10 nM | –
